{
  "source": "PubChem BioAssay AID1996",
  "data": [
    {"settings": "buffer; pH 7.4; 200.0 µM", "units": {"solubility kinetic": "µg/mL"}, "values": [
      {"smiles": "O=C(CCC(=O)c1ccc(Cl)s1)Nc1ncccc1O", "solubility kinetic": "> 46.6"},
      {"smiles": "COc1ccc(S(=O)(=O)N2CCCN(C)CC2)cc1.Cl", "solubility kinetic": "> 48.1"},
      {"smiles": "Cc1ccccc1C(=O)N1CCN(c2ncccn2)CC1", "solubility kinetic": "> 42.4"},
      {"smiles": "C/C(=N/NC(=O)CNC(=O)c1ccncc1)c1ccco1", "solubility kinetic": "> 42.9"},
      {"smiles": "O=C(c1ccccc1O)N1CCOCC1", "solubility kinetic": 30.5},
      {"smiles": "CNC(=S)c1cc(C(C)(C)C)c(O)c(C(C)(C)C)c1", "solubility kinetic": 13.4},
      {"smiles": "COc1ccc(OC)c(N2C(=O)CCCC2=O)c1", "solubility kinetic": 24.7},
      {"smiles": "O=C1CSc2ccc(C(=O)NCc3ccccn3)cc2N1", "solubility kinetic": "> 44.9"},
      {"smiles": "CCOC(=O)/C(C)=C1\\NC(C)(C)Cc2ccccc21.I", "solubility kinetic": 18.7},
      {"smiles": "Cc1csc(NC(=O)c2ccc(C)s2)n1", "solubility kinetic": 25.9},
      {"smiles": "NC(=O)COn1c(SCC(N)=O)nc2ccccc2c1=O", "solubility kinetic": "> 46.2"},
      {"smiles": "COC(CNC(=O)c1ccc2c(c1)ncn2C1CCCCCC1)OC", "solubility kinetic": "> 51.8"},
      {"smiles": "CN(CC(=O)N1CCOCC1)S(=O)(=O)c1ccc2ccccc2c1", "solubility kinetic": "> 52.3"},
      {"smiles": "Cc1[nH]c2ccc(C(=O)N3CCCCC3)cc2c1C", "solubility kinetic": "> 38.5"},
      {"smiles": "CC(OC(=O)c1ccc(Br)o1)C(=O)NCC1CCCCC1", "note": "(stereo unspecified)", "solubility kinetic": 10.7},
      {"smiles": "S=C(NCC1CCCO1)NC12CC3CC(CC(C3)C1)C2", "note": "(stereo unspecified)", "solubility kinetic": 4},
      {"smiles": "Cc1cc2nc(C(C)(C)C)cc(N)n2n1", "solubility kinetic": "> 30.6"},
      {"smiles": "COc1ccc(C(=O)Nc2ccc(C(=O)c3ccccc3)cc2)cc1", "solubility kinetic": "< 0.7"},
      {"smiles": "CCC(=O)N(C(=O)CC)N1CCN(c2ccncc2S(=O)(=O)N2CCCCC2)CC1", "solubility kinetic": "> 65.6"},
      {"smiles": "Cc1ccc(OCC(=O)OCC(=O)NC2CC2)cc1C", "solubility kinetic": "> 41.6"},
      {"smiles": "C#CCOc1ccc(/C=C2/C(=O)N(c3cccc(C(=O)O)c3)N=C2C)cc1OC", "solubility kinetic": "> 58.6"},
      {"smiles": "CC1CCC(C(C)C)C(OCC(O)CNC(C)C)C1.Cl", "note": "(stereo unspecified)", "solubility kinetic": "> 46.2"},
      {"smiles": "Cc1cc(C(=O)NCc2ccccc2F)c2ccccc2n1", "solubility kinetic": 9.3},
      {"smiles": "Cc1ccc(Oc2ncnc(N)c2[N+](=O)[O-])cc1C", "solubility kinetic": 4.8},
      {"smiles": "CC(C)CN(CC(C)C)C(=O)Nc1ccc(F)cc1F", "solubility kinetic": 33.2},
      {"smiles": "Cn1ccsc1=NC(=O)c1cccc(C#N)c1", "solubility kinetic": "> 36.5"},
      {"smiles": "O=[N+]([O-])c1ccc2nc(NS(=O)(=O)c3ccc(F)cc3)sc2c1", "solubility kinetic": 49.7},
      {"smiles": "Cn1c(N)c(Sc2ccccc2[N+](=O)[O-])c(=O)n(C)c1=O", "solubility kinetic": 41.5},
      {"smiles": "Cc1ccc(SCC(=O)Nc2ccc(N3CCOCC3)cc2)cc1C", "solubility kinetic": 12.3},
      {"smiles": "Cc1ccc(NC(=O)CCc2ccc(S(=O)(=O)N3CCOCC3)cc2)c(Cl)c1", "solubility kinetic": 6.1},
      {"smiles": "c1ccc(NCc2ccccn2)cc1", "solubility kinetic": 24.6},
      {"smiles": "Cc1cc(OCC(=O)Nc2ccncc2)ccc1[N+](=O)[O-]", "solubility kinetic": 35.8},
      {"smiles": "O=C(COC(=O)/C=C/c1cccc(C(F)(F)F)c1)NC(=O)NCc1ccco1", "solubility kinetic": 4.5},
      {"smiles": "Cc1c(Cl)cccc1NC(=O)CCCN1C(=O)c2cccnc2C1=O", "solubility kinetic": 39.5},
      {"smiles": "Nc1cc(C(=O)OCC(=O)NCCCc2ccccc2)ccc1Cl", "solubility kinetic": 10.5},
      {"smiles": "Cc1ccc(S(=O)(=O)N(C)C)cc1NC(=O)COC(=O)COc1ccc2c(C)cc(=O)oc2c1", "solubility kinetic": "> 73.3"},
      {"smiles": "Cc1ccccc1NC(=O)NCc1cccnc1", "solubility kinetic": "> 36.2"},
      {"smiles": "CCC(OC(=O)c1nsc(Cl)c1Cl)C(=O)NC(C)(C)CC", "note": "(stereo unspecified)", "solubility kinetic": "> 53"},
      {"smiles": "O=C(Nc1cccc(S(=O)(=O)NCc2ccco2)c1)c1cccc(Cl)c1", "solubility kinetic": 2.5},
      {"smiles": "Cc1c(Cl)cccc1NC(=S)NC1CCN(C(C)C)CC1", "solubility kinetic": "> 48.9"},
      {"smiles": "CN(CC(=O)Nc1ccccc1C(=O)NC1CC1)Cc1ccco1", "solubility kinetic": "> 49.1"},
      {"smiles": "Cc1cc(C(=O)CN2C(=O)C(=O)N(CCC3=CCCCC3)C2=O)c(C)n1C", "solubility kinetic": 11.5},
      {"smiles": "COc1cccc(NC(=S)NC(=O)/C=C/c2ccco2)c1", "solubility kinetic": 11.2},
      {"smiles": "O=C(c1ccc([N+](=O)[O-])s1)N1CCN(c2ccccn2)CC1", "solubility kinetic": 42.7},
      {"smiles": "CC1(C)CC(NC(=S)NCc2ccco2)CC(C)(C)N1", "solubility kinetic": "> 44.3"},
      {"smiles": "CC(C(=O)O)c1ccc(N2Cc3ccccc3C2=O)cc1", "note": "(stereo unspecified)", "solubility kinetic": "> 42.2"},
      {"smiles": "CN(CC(=O)c1c(N)n(C)c(=O)n(C)c1=O)c1ccccc1", "solubility kinetic": "> 45.3"},
      {"smiles": "COc1ccc(Nc2ncnc3sc(C)cc23)c(OC)c1.Cl", "solubility kinetic": "> 50.7"},
      {"smiles": "CC(=O)c1ccc(N2CCN(Cc3nc4ccccc4[nH]3)CC2)cc1", "solubility kinetic": 29.8},
      {"smiles": "Cc1csc(NC(=O)Cc2ccccc2Cl)n1", "solubility kinetic": 34.4},
      {"smiles": "C=CCn1c(C)c(C=C2C(=O)NC(=O)NC2=O)c2ccccc21", "solubility kinetic": "> 46.4"},
      {"smiles": "CC(NC(=O)Cn1cccc1)c1ccccc1", "note": "(stereo unspecified)", "solubility kinetic": "> 34.2"},
      {"smiles": "O=C(CN1CCOCC1)Nc1cccc([N+](=O)[O-])c1", "solubility kinetic": 36.3},
      {"smiles": "C=CCn1c(SC(F)F)nc2scc(-c3ccco3)c2c1=O", "solubility kinetic": "< 0.4"},
      {"smiles": "CC1(C)CC(NCCC(c2ccccc2)c2ccco2)CCO1", "note": "(stereo unspecified)", "solubility kinetic": 44.5},
      {"smiles": "Cc1cc(NC(=O)COC(=O)c2ccccc2NCCO)no1", "solubility kinetic": "> 47.9"},
      {"smiles": "Cc1ccc(NC(=O)c2cc3ccccc3oc2=N)cc1", "solubility kinetic": "< 0.3"},
      {"smiles": "CCc1cc(C(=O)O)c(NC(=O)/C=C/c2ccc(OC)cc2)s1", "solubility kinetic": "> 49.7"},
      {"smiles": "O=Cc1ccc(Oc2ncccn2)cc1", "solubility kinetic": "> 30"},
      {"smiles": "CCN(CC)CCNc1ccc(CO)c2sc3ccccc3c(=O)c12", "solubility kinetic": "> 53.5"},
      {"smiles": "CCC1(C)Cc2ccccc2-c2nc(SC)[nH]c(=O)c21", "note": "(stereo unspecified)", "solubility kinetic": "< 0.3"}
    ]}
  ]
}
